Tested on: 475296-252-R-J1-PDC spheroid viability
Assay: Anticancer human tumor 475296-252-R-J1-PDC patient-derived rectal carcinoma cell line growth inhibition [PI3K]
Conditions: spheroids with HUVEC and MSC; for viability, T/C: stronger effect = lower value
Procedure, shortened: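 Targeted small molecules plus PI3K inhibitors, half-log dose series from Cmax (default top 10 microM), were applied to heterotypic spheroids of cancer cells with HUVEC and MSCs. Viability indicated growth inhibition.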

[1] = curve of first compound, second compound 0.00316 µM
[2] = curve of first compound, second compound 0.01 µM
[3] = curve of first compound, second compound 0.0316 µM
[4] = curve of first compound, second compound 0.1 µM
[5] = curve of first compound, second compound 0.316 µM
[6] = curve of first compound, second compound 1 µM
[7] = second compound 0.00316 µM, first compound 0.0316 µM
[8] = second compound 0.00316 µM, first compound 0.1 µM
[9] = second compound 0.00316 µM, first compound 0.316 µM
[10] = second compound 0.00316 µM, first compound 1 µM
[11] = second compound 0.00316 µM, first compound 3.16 µM
[12] = second compound 0.00316 µM, first compound 10 µM
[13] = second compound 0.01 µM, first compound 0.0316 µM
[14] = second compound 0.01 µM, first compound 0.1 µM
[15] = second compound 0.01 µM, first compound 0.316 µM
[16] = second compound 0.01 µM, first compound 1 µM
[17] = second compound 0.01 µM, first compound 3.16 µM
[18] = second compound 0.01 µM, first compound 10 µM
[19] = second compound 0.0316 µM, first compound 0.0316 µM
[20] = second compound 0.0316 µM, first compound 0.1 µM
[21] = second compound 0.0316 µM, first compound 0.316 µM
[22] = second compound 0.0316 µM, first compound 1 µM
[23] = second compound 0.0316 µM, first compound 3.16 µM
[24] = second compound 0.0316 µM, first compound 10 µM
[25] = second compound 0.1 µM, first compound 0.0316 µM
[26] = second compound 0.1 µM, first compound 0.1 µM
[27] = second compound 0.1 µM, first compound 0.316 µM
[28] = second compound 0.1 µM, first compound 1 µM
[29] = second compound 0.1 µM, first compound 3.16 µM
[30] = second compound 0.1 µM, first compound 10 µM
[31] = second compound 0.316 µM, first compound 0.0316 µM
[32] = second compound 0.316 µM, first compound 0.1 µM
[33] = second compound 0.316 µM, first compound 0.316 µM
[34] = second compound 0.316 µM, first compound 1 µM
[35] = second compound 0.316 µM, first compound 3.16 µM
[36] = second compound 0.316 µM, first compound 10 µM
[37] = second compound 1 µM, first compound 0.0316 µM
[38] = second compound 1 µM, first compound 0.1 µM
[39] = second compound 1 µM, first compound 0.316 µM
[40] = second compound 1 µM, first compound 1 µM
[41] = second compound 1 µM, first compound 3.16 µM
[42] = second compound 1 µM, first compound 10 µM
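Also: spheroids exposed to agents for seven days before readout.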

For `CCCS(=O)(=O)Nc1ccc(F)c(C(=O)c2c[nH]c3ncc(-c4ccc(Cl)cc4)cc23)c1F` + COc1c(OCCCN2CCOCC2)ccc2c3n(c(=NC(=O)c4cnc(N)nc4)nc12)CCN3, the IC50 [1] was > 10 µM, the IC50 [2] was > 10 µM and the IC50 [3] was > 10 µM. The IC50 [4] was > 10 µM, the IC50 [5] was > 10 µM and the IC50 [6] was > 10 µM. It also gave a viability, T/C [7] of 102%, a viability, T/C [8] of 85.2% and a viability, T/C [9] of 98.7%. For the same compound, the viability, T/C [10] was 103%, the viability, T/C [11] was 98.4% and the viability, T/C [12] was 105%. The viability, T/C [13] was 94%, the viability, T/C [14] was 99.5% and the viability, T/C [15] was 87.7%. The viability, T/C [16] was 86.9%, the viability, T/C [17] was 94.2% and the viability, T/C [18] was 100%. For the same compound, the viability, T/C [19] was 91.9%, the viability, T/C [20] was 91.1% and the viability, T/C [21] was 93.8%. It also gave a viability, T/C [22] of 94.8%, a viability, T/C [23] of 83.2% and a viability, T/C [24] of 87.4%. For the same compound, the viability, T/C [25] was 83%, the viability, T/C [26] was 80% and the viability, T/C [27] was 84.5%. It also gave a viability, T/C [28] of 78.8%, a viability, T/C [29] of 66.4% and a viability, T/C [30] of 71.3%. For the same compound, the viability, T/C [31] was 67.6%, the viability, T/C [32] was 69.8% and the viability, T/C [33] was 64.9%. The viability, T/C [34] was 70.2%, the viability, T/C [35] was 57.5% and the viability, T/C [36] was 64.6%. It also gave a viability, T/C [37] of 62.5%, a viability, T/C [38] of 64.1% and a viability, T/C [39] of 79.8%. It also gave a viability, T/C [40] of 57.9%, a viability, T/C [41] of 73.3% and a viability, T/C [42] of 58.1%.

In the case of `CNC(=O)c1ccc(N2C(=S)N(c3ccc(C#N)c(C(F)(F)F)c3)C(=O)C2(C)C)cc1F` + CC(Nc1ccc2c(c1)OCCn1cc(N3C(=O)OCC3C(F)F)nc1-2)C(N)=O, the IC50 [1] is reported as > 10 µM, the IC50 [2] is reported as > 10 µM and the IC50 [3] is reported as > 10 µM. For the same compound, the IC50 [4] was > 10 µM, the IC50 [5] was > 10 µM and the IC50 [6] was > 10 µM. It also gave a viability, T/C [7] of 98.4%, a viability, T/C [8] of 85% and a viability, T/C [9] of 102%. The viability, T/C [10] was 84.3%, the viability, T/C [11] was 100% and the viability, T/C [12] was 104%. It also gave a viability, T/C [13] of 95.4%, a viability, T/C [14] of 90.4% and a viability, T/C [15] of 102%. It also gave a viability, T/C [16] of 93%, a viability, T/C [17] of 99.3% and a viability, T/C [18] of 85.1%. The viability, T/C [19] was 94.6%, the viability, T/C [20] was 87.7% and the viability, T/C [21] was 94.2%. The viability, T/C [22] was 99.9%, the viability, T/C [23] was 96.9% and the viability, T/C [24] was 103%. The viability, T/C [25] was 87.1%, the viability, T/C [26] was 93.6% and the viability, T/C [27] was 90%. The viability, T/C [28] was 100%, the viability, T/C [29] was 97.5% and the viability, T/C [30] was 91.3%. It also gave a viability, T/C [31] of 87.7%, a viability, T/C [32] of 93.8% and a viability, T/C [33] of 84.9%. For the same compound, the viability, T/C [34] was 94.3%, the viability, T/C [35] was 92.5% and the viability, T/C [36] was 90.9%. The viability, T/C [37] was 98.1%, the viability, T/C [38] was 89% and the viability, T/C [39] was 91.3%. It also gave a viability, T/C [40] of 84%, a viability, T/C [41] of 94.3% and a viability, T/C [42] of 80.8%.

For `CCCS(=O)(=O)Nc1ccc(F)c(C(=O)c2c[nH]c3ncc(-c4ccc(Cl)cc4)cc23)c1F`, the viability, T/C (compound 0.0316 µM) was 101% [middle of 4 runs], the viability, T/C (compound 0.1 µM) was 95% [middle of 4 runs] and the viability, T/C (compound 0.316 µM) was 96.8% [middle of 4 runs]. The viability, T/C (compound 1 µM) was 90.3% [middle of 4 runs], the viability, T/C (compound 3.16 µM) was 98.2% [middle of 4 runs] and the viability, T/C (compound 10 µM) was 95.3% [middle of 4 runs]. For the same compound, the IC50 (curve of compound) was > 10 µM.

Reference: PubChem BioAssay AID1963980 (Molecular Pharmacology Branch, DTP, NCI, 2024)
